Results from patent publication US20240366589A1, “NHE3-BINDING COMPOUNDS AND METHODS FOR INHIBITING PHOSPHATE TRANSPORT” (Ardelyx, Inc., priority 2013, published 2024).
Each block holds one compound with its values, some of them ahead of it.

Assays:
Rat NHE3 = target: T1, Rat NHE3 (Rattus norvegicus, UniProt P26433); test: Cell-based NHE3 activity under prompt conditions (OK cells, BCECF pH recovery), rat NHE3; conditions: for Rat NHE3 pIC50 Prompt: Table E5, 001 free base, 002-005 dihydrochloride salt; for Prompt Rat NHE3 pIC50: prompt conditions
T1 construct: expressed in transfected cells; host or cells: Opossum kidney (OK) cells (ATCC), electroporation
Method in brief: (§1)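 Fluorometric NHE3 antiport assay in opossum kidney cells carrying rat or human NHE3, using BCECF pH recovery after NH4Cl-prepulse acid loading. pIC50 values derive from initial rates averaged across at least two replicates.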

Human NHE3 [1] = target: T2, Human NHE3 (Homo sapiens, UniProt P48764); test: Cell-based NHE3 activity under prompt conditions (OK cells, BCECF pH recovery), human NHE3; conditions: for pIC50 Prompt: Table E6, NHE3 species not stated; for Prompt Human NHE3 pIC50: prompt conditions
T2 construct: expressed in transfected cells; host or cells: Opossum kidney (OK) cells (ATCC), electroporation
T2 sequence (P48764 26-834): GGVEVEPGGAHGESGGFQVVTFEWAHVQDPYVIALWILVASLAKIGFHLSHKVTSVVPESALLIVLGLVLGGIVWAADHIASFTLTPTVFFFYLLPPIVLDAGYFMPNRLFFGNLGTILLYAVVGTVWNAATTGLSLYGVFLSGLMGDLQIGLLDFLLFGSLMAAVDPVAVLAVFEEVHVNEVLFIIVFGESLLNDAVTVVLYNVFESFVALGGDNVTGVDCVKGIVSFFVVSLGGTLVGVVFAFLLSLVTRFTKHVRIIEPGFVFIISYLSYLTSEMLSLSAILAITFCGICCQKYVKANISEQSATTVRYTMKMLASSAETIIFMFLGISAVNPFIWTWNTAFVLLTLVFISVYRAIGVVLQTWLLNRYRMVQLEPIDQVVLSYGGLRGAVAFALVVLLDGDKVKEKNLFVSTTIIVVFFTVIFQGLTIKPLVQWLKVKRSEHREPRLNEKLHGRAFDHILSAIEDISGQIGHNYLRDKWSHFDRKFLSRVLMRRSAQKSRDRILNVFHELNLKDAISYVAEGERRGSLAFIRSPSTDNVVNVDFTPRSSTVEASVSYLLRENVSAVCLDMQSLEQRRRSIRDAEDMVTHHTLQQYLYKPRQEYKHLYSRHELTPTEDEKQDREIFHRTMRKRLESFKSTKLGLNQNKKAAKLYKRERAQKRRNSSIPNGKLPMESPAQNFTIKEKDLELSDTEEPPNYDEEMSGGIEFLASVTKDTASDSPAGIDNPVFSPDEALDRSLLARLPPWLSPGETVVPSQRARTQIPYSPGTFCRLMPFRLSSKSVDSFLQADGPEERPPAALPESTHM
Method in brief: as §1

Human NHE3 [2] = target: T2, Human NHE3; test: Cell-based NHE3 activity under persistent conditions (60 min incubation, washout), human NHE3; conditions: Table E5; dihydrochloride salt
[3] = test system: absorption of sodium from the intestinal lumen; test: Inhibition of intestinal sodium absorption: urinary sodium (uNa) 16 h after single oral dose in rats; assay type: in vivo, rat; conditions: for UNa (%): urinary Na excretion as % of vehicle; for Urine Na % of control: oral gavage, 16 h post-dose
Method in brief: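 Urinary sodium mass over the 16 h after one oral gavage dose, measured by cation-exchange ion chromatography, reported as percent of water-vehicle group; ANOVA plus Dunnett's post hoc test. Groups of six 8-week-old Sprague-Dawley rats, housed individually in metabolic cages post-dose, fed and watered freely.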

[4] = test system: absorption of sodium from the intestinal lumen; test: Fecal form score (FFS) 16 h after oral dose in rats; assay type: in vivo, rat; conditions: for Fecal Form Score average: oral gavage, 16 h post-dose, scale 1-5
Method in brief: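 Fecal form was scored at 16 h post-dose on a 1–5 wetness scale (normal pellet to liquid stream), with two independent observations averaged across six rats per group. Animals were 8-week-old Sprague-Dawley rats given test compound or water orally in the late afternoon and kept in metabolic cages.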

[5] = test system: intestinal phosphate uptake; test: Pharmacodynamic study with 33P oral challenge in normal function rats; assay type: in vivo, rat; conditions: 10 mg/kg; for Pi uptake after 33P oral challenge: 8 mM Pi with 33P, dihydrochloride salts, FIG. 1A
Method: The compounds identified as Cpds 003, 004, and 005 (from Table E4, as their dihydrochloride salts) were tested for the ability to block intestinal phosphate uptake in rats. Rats were orally challenged with dosing solutions composed of 5 ml/kg (˜1.3 ml) of 8 mM Pi with ^33P and +/−10 mg/kg of test compound. Also included were dosing solutions further composed of either (i) 75 mM glucose+4 mM Ca or (ii) 4 mM Ca.

NHE-2 = target: T3, NHE-2 (Rattus norvegicus, UniProt P48763); conditions: * = from rat; read-out: IC50 or Ki NHE-2; cited from earlier work
T3 sequence (P48763 1-813): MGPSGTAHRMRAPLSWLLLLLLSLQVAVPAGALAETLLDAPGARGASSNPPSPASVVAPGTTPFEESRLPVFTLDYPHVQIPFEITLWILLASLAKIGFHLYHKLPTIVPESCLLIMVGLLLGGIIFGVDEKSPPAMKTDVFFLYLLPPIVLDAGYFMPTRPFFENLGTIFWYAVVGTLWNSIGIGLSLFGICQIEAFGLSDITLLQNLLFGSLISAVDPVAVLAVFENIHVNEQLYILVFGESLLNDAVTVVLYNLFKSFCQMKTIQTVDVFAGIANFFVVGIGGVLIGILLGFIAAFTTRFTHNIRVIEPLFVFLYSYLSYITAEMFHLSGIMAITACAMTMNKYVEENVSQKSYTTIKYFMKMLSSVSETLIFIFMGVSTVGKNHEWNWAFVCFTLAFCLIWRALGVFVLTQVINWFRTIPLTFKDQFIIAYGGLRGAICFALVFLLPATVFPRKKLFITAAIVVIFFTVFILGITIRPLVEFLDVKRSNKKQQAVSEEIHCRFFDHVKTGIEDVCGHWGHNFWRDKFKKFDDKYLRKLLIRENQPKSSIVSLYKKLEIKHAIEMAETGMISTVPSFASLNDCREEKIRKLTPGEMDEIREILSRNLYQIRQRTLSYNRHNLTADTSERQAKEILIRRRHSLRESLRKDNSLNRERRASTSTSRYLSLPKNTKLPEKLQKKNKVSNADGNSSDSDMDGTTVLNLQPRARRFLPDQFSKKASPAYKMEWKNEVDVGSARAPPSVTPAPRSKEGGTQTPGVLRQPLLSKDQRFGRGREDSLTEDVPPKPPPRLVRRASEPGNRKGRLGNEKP

NHE-1 = NHE-1 (Homo sapiens, UniProt P19634); test: NHE isoform inhibition, Table 2 adapted from Masereel et al.: NHE-1, species not marked; assay type: biochemical; conditions: from Table 2 values
Description: Shown below are examples of various NHE binding small molecules and their selectivity across the NHE-1, -2 and -3 isoforms. (See, e.g., B. Masereel et al., An Overview of Inhibitors of Na+/H+ Exchanger, European J. of Med. Chem., 38, pp. 547-554 (2003), the entire contents of which is incorporated by reference here for all relevant and consistent purposes). […] It is thus possible to engineer NHE3 binding selectivity into a chemical series optimized for potency against another antiporter isoform; that is, the inhibitor classes exemplified in the art may be suitably modified for activity and selectivity against NHE3 (or alternatively NHE-2 and/or NHE-8), as well as being optionally modified to be rendered substantially impermeable or substantially systemically non-bioavailable.

[6] = test system: phosphorus and calcium levels in the urine of rats; test: Urinary excretion of phosphate and calcium in rats (16 h overnight urine); assay type: in vivo, rat; conditions: rats, oral gavage, 16 h post-dose

T1 sequence (P26433 29-831): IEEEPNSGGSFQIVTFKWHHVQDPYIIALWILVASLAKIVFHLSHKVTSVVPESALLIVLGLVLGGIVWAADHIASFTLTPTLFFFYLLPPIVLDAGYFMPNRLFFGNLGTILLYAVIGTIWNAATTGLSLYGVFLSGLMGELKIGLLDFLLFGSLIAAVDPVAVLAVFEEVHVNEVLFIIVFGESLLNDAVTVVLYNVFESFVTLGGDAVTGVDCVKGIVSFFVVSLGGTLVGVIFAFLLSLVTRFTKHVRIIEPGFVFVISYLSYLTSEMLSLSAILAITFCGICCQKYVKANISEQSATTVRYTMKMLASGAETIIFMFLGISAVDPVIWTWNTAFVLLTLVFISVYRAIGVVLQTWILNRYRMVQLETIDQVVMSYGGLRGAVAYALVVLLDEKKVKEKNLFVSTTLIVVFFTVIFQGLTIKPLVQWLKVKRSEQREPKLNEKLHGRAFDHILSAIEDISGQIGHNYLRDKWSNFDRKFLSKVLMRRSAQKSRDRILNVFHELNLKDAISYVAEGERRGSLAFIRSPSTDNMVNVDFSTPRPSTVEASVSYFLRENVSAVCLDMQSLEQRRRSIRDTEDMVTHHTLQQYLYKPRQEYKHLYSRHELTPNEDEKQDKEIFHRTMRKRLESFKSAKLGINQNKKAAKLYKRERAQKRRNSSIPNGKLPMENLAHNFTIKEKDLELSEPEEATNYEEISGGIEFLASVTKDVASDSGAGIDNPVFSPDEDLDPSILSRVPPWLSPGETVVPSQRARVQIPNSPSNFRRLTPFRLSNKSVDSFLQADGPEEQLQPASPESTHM
Chain of NHE-1 (P19634 whole entry, species assumed, canonical isoform): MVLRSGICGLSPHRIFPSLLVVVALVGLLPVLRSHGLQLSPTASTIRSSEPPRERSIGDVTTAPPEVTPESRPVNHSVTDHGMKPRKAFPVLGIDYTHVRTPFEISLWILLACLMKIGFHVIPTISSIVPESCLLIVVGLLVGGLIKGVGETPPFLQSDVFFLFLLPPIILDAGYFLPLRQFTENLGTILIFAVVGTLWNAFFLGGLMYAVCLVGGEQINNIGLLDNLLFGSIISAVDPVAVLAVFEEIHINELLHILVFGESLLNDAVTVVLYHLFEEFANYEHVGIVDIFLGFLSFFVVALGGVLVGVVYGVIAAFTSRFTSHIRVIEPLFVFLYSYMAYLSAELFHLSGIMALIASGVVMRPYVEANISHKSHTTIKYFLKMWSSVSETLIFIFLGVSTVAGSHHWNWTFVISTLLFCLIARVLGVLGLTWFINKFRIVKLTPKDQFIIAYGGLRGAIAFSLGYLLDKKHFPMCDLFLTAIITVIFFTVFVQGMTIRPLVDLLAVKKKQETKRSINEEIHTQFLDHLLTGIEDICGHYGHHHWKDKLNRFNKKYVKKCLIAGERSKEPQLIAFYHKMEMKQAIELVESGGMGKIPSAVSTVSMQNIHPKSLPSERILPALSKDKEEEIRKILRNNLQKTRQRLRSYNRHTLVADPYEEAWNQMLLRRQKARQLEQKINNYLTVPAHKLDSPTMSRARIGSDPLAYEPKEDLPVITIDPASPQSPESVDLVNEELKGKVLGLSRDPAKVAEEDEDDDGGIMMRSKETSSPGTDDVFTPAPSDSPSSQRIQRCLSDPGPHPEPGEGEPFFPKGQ

SMILES: CN1Cc2c(Cl)cc(Cl)cc2[C@H](c2cccc(S(=O)(=O)NCCOCCOCCNC(=O)Nc3ccc(NC(=O)NCCOCCOCCNS(=O)(=O)c4cccc([C@@H]5CN(C)Cc6c(Cl)cc(Cl)cc65)c4)cc3)c2)C1 [Cpd 003]
Rat NHE3 pIC50 Prompt (Rat NHE3): 8.6
Human NHE3 pIC50 Prompt (Human NHE3 [1]; Table E5, 001 free base, 002-005 dihydrochloride salt): 8
pIC50 Prompt (Human NHE3 [1]): 8
Human NHE3 pIC50 Persistent (Human NHE3 [2]): 8.1
effect on urinary Na (UNa) ([3]; in words): significant reduction in UNa
UNa (%) ([3]; single oral dose 1 mg/kg): 22 @ 1 mg/kg %
effect on fecal form ([4]; in words): change in fecal form
Pi uptake after 33P oral challenge [5]: reducing Pi uptake
Pi uptake after 33P oral challenge in the presence of Ca ([5]; 4 mM Ca, FIG. 1C): significantly reduced Pi uptake
Pi uptake after 33P oral challenge in the presence of glucose/Ca ([5]; 75 mM glucose + 4 mM Ca, FIG. 1B): significantly reduced Pi uptake

SMILES: CN1Cc2c(Cl)cc(Cl)cc2[C@@H](c2cccc(S(=O)(=O)NCCOCCOCCNC(=O)NCCCCNC(=O)NCCOCCOCCNS(=O)(=O)c3cccc([C@@H]4CN(C)Cc5c(Cl)cc(Cl)cc54)c3)c2)C1 [Cpd 005]
Rat NHE3 pIC50 Prompt (Rat NHE3): <5.0
IC50 (Human NHE3 [1]; Table E5, 001 free base, 002-005 dihydrochloride salt, read-out: Human NHE3 pIC50 Prompt (converted)): > 10000 nM
pIC50 Prompt (Human NHE3 [1]): <5.0
UNa (%) ([3]; single oral dose 10 mg/kg): 90 @ 10 mg/kg %
Pi uptake after 33P oral challenge [5]: inactive

SMILES: CCN(c1nc(N)c(C(=O)NC(=N)N)nc1Cl)C(C)C [EIPA, ethyl isopropyl amiloride]
IC50 (NHE-2): 80 nM

SMILES: C/C(=C\c1cc(C)ccc1/C=C(\C)C(=O)NC(=N)N)C(=O)N=C(N)N [S-3226]
selectivity: more active against NHE-1 than NHE3 (NHE-1): selectivity is reversed

SMILES: CN(C)CC(=O)NC(CCC(=O)N(C)CCOCCOCCNS(=O)(=O)c1cccc([C@@H]2CN(C)Cc3c(Cl)cc(Cl)cc32)c1)(CCC(=O)N(C)CCOCCOCCNS(=O)(=O)c1cccc([C@@H]2CN(C)Cc3c(Cl)cc(Cl)cc32)c1)CCC(=O)N(C)CCOCCOCCNS(=O)(=O)c1cccc([C@@H]2CN(C)Cc3c(Cl)cc(Cl)cc32)c1 [compound 176]
Prompt Rat NHE3 pIC50 (Rat NHE3): 7.50
Prompt Human NHE3 pIC50 (Human NHE3 [1]): 7.40
Urine Na % of control ([3]; dose 3 mg/kg): 73%
Fecal Form Score average ([4]; dose 3 mg/kg): 1
Urine P % of control ([6]; dose 3 mg/kg): 92%

SMILES: CN1Cc2c(Cl)cc(Cl)cc2[C@H](c2cccc(S(=O)(=O)NCCOCCOCCNC(=O)NCCCCNC(=O)NCCOCCOCCNS(=O)(=O)c3cccc([C@@H]4CN(C)Cc5c(Cl)cc(Cl)cc54)c3)c2)C1 [compound 180]
Prompt Rat NHE3 pIC50 (Rat NHE3): 8.03
Prompt Human NHE3 pIC50 (Human NHE3 [1]): 8.30
Urine Na % of control ([3]; dose 0.03 mg/kg): 67%
Urine Na % of control ([3]; dose 0.1 mg/kg): 45%
Urine Na % of control ([3]; dose 0.3 mg/kg): 33%
Urine Na % of control ([3]; dose 1 mg/kg): 15%
Urine Na % of control ([3]; dose 3 mg/kg): 53%
Fecal Form Score average ([4]; dose 0.03 mg/kg): 1
Fecal Form Score average ([4]; dose 0.1 mg/kg): 1
Fecal Form Score average ([4]; dose 0.3 mg/kg): 3
Fecal Form Score average ([4]; dose 1 mg/kg): 3
Fecal Form Score average ([4]; dose 3 mg/kg): 4
Urine P % of control ([6]; dose 0.03 mg/kg): 80%
Urine P % of control ([6]; dose 0.1 mg/kg): 82%
Urine P % of control ([6]; dose 0.3 mg/kg): 75%
Urine P % of control ([6]; dose 1 mg/kg): 69%
Urine P % of control ([6]; dose 3 mg/kg): 38%

Second part, led by results:

selectivity: more active against NHE-1 than NHE3 (NHE-1): over 500 fold
SMILES: C/C(=C\c1cccc(/C=C(\C)C(=O)NC(=N)N)c1)C(=O)N=C(N)N [S-2120]

Prompt Rat NHE3 pIC50 (Rat NHE3): 7.70
Prompt Human NHE3 pIC50 (Human NHE3 [1]): 7.80
SMILES: CN1Cc2c(Cl)cc(Cl)cc2[C@H](c2cccc(S(=O)(=O)NCCOCCOCCN(C)C(=O)CCC(CCC(=O)N(C)CCOCCOCCNS(=O)(=O)c3cccc([C@@H]4CN(C)Cc5c(Cl)cc(Cl)cc54)c3)(CCC(=O)N(C)CCOCCOCCNS(=O)(=O)c3cccc([C@@H]4CN(C)Cc5c(Cl)cc(Cl)cc54)c3)NC(=O)COCC(=O)O)c2)C1 [compound 177]
Urine Na % of control ([3]; dose 3 mg/kg): 52%
Fecal Form Score average ([4]; dose 3 mg/kg): 2
Urine P % of control ([6]; dose 3 mg/kg): 45%

Prompt Rat NHE3 pIC50 (Rat NHE3): 7.10
Prompt Human NHE3 pIC50 (Human NHE3 [1]): 7.33
SMILES: CN1Cc2c(Cl)cc(Cl)cc2[C@H](c2cccc(S(=O)(=O)NCCOCCOCCNC(=O)CCC(CCC(=O)NCCOCCOCCNS(=O)(=O)c3cccc([C@@H]4CN(C)Cc5c(Cl)cc(Cl)cc54)c3)(CCC(=O)NCCOCCOCCNS(=O)(=O)c3cccc([C@@H]4CN(C)Cc5c(Cl)cc(Cl)cc54)c3)NC(=O)NC(CO)CO)c2)C1 [compound 178]
Urine Na % of control ([3]; dose 3 mg/kg): 18%
Fecal Form Score average ([4]; dose 3 mg/kg): 3
Urine P % of control ([6]; dose 3 mg/kg): 46%

Prompt Rat NHE3 pIC50 (Rat NHE3): 8.00
Prompt Human NHE3 pIC50 (Human NHE3 [1]): 7.77
SMILES: CN(C)[C@H]1Cc2c(Cl)cc(Cl)cc2[C@@H]1Oc1ccc(S(=O)(=O)NCCOCCOCCNC(=O)CCC(C)(CCC(=O)NCCOCCOCCNS(=O)(=O)c2ccc(O[C@H]3c4cc(Cl)cc(Cl)c4C[C@@H]3N(C)C)cc2)NC(=O)CCC(=O)O)cc1 [compound 179]
Urine Na % of control ([3]; dose 3 mg/kg): 40%
Fecal Form Score average ([4]; dose 3 mg/kg): 1
Urine P % of control ([6]; dose 3 mg/kg): 66%
